For 31 compounds, EC50 results are on record in patent US20250129104A1, “7H-PYRROLO[2,3-D]PYRIMIDINES AND PREPARATION AND USES THEREOF” (BioSplice Therapeutics, Inc., priority 2021, published 2025).

SMILES strings stand for the structures.

In the experiment the target is recombinant DYRK1A kinase (Homo sapiens (Human), UniProt Q13627). The experiment is described as follows: DYRK1A kinase assay (Ser/Thr 18 peptide Z-lyte FRET assay). The following applies: DYRK1A kinase activity; 15 μM ATP, 1 h room temperature; method text calls the value IC50. In kind it is biochemical. The procedure, abridged: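 FRET Z-lyte read-out (coumarin/fluorescein ratio, % phosphorylation) after 1 h development; IC50 from non-linear curve fit. Reaction: 0.25 μg/mL recombinant human DYRK1A, Ser/Thr 18 peptide 4 μM, ATP 15 μM, compound in 11-point 1:3 series from 10 μM, 1 h, room temperature, duplicate wells.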
For orientation: EC50 means the midpoint of the concentration-response curve. Take `CCO[C@H]1CC[C@@H](Nc2ncc3c(-c4cc(F)c5nccn5c4)c[nH]c3n2)CC1` [Compound 2129, N-(cis-4-Ethoxycyclohexyl)-5-(8-fluoroimidazo[1,2-a]pyridin-6-yl)-7H-pyrrolo[2,3-d]pyrimidin-2-amine]: the EC50 is 2.4 nM.
For `CCO[C@H]1CC[C@@H](Nc2ncc3c(-c4ccc5nnn(C)c5c4)c[nH]c3n2)CC1` [Compound 2143, N-(cis-4-Ethoxycyclohexyl)-5-(1-methyl-1H-benzo[d][1,2,3]triazol-6-yl)-7H-pyrrolo[2,3-d]pyrimidin-2-amine], the EC50 stood at 9.9 nM.
With `CCO[C@H]1CC[C@@H](Nc2ncc3c(-c4ccc5nccn5n4)c[nH]c3n2)CC1` [Compound 2145, N-(cis-4-Ethoxycyclohexyl)-5-(imidazo[1,2-b]pyridazin-6-yl)-7H-pyrrolo [2,3-d]pyrimidin-2-amine] the figure was 3 nM; with `CCO[C@H]1CC[C@@H](Nc2ncc3c(-c4ccn5nccc5n4)c[nH]c3n2)CC1` [Compound 2162, N-(cis-4-Ethoxycyclohexyl)-5-(pyrazolo[1,5-a]pyrimidin-5-yl)-7H-pyrrolo [2,3-d]pyrimidin-2-amine], 8.5 nM.
Turning to `[2H]C([2H])([2H])O[C@H]1CC[C@@H](Nc2ncc3c(-c4ccc5nccn5n4)c[nH]c3n2)CC1` [Compound 2171, 5-(Imidazo[1,2-b]pyridazin-6-yl)-N-(cis-4-(methoxy-d3)cyclohexyl)-7H-pyrrolo[2,3-d]pyrimidin-2-amine], the EC50 turned out to be 1.5 nM.
The same measure for `[2H]C([2H])([2H])O[C@H]1CC[C@@H](Nc2ncc3c(-c4ccc5nnn(C)c5c4)c[nH]c3n2)CC1` [Compound 2172, N-(cis-4-(Methoxy-d3)cyclohexyl)-5-(1-methyl-1H-benzo[d][1,2,3]triazol-6-yl)-7H-pyrrolo[2,3-d]pyrimidin-2-amine]: 5 nM; for `[2H]C([2H])([2H])O[C@H]1CC[C@@H](Nc2ncc3c(-c4ccc5nccnc5c4)c[nH]c3n2)CC1` [Compound 2173, N-(cis-4-(Methoxy-d3)cyclohexyl)-5-(quinoxalin-6-yl)-7H-pyrrolo[2,3-d]pyrimidin-2-amine]: 10.5 nM.
In the case of `COc1nc(N[C@H](C)C(F)(F)F)nc2[nH]cc(-c3ccc4nccn4c3)c12` [Compound 2174, (R)-5-(Imidazo[1,2-a]pyridin-6-yl)-4-methoxy-N-(1,1,1-trifluoropropan-2-yl)-7H-pyrrolo[2,3-d]pyrimidin-2-amine], the EC50 was determined as 1.6 nM.
For `COC[C@@H](C)Nc1nc(OC)c2c(-c3ccc4nccn4c3)c[nH]c2n1` [Compound 2175, (R)-5-(Imidazo[1,2-a]pyridin-6-yl)-4-methoxy-N-(1-methoxypropan-2-yl)-7H-pyrrolo[2,3-d]pyrimidin-2-amine], the EC50 was determined as 74.9 nM.
Take `COc1nc(N[C@H]2CC[C@@H](OCC(F)F)CC2)nc2[nH]cc(-c3ccc4nccn4c3)c12` [Compound 2176, N-(cis-4-(2,2-Difluoroethoxy)cyclohexyl)-5-(imidazo[1,2-a]pyridin-6-yl)-4-methoxy-7H-pyrrolo[2,3-d]pyrimidin-2-amine]: the EC50 stood at 2.1 nM.
The same measure for `CCOc1nc(N[C@H](C)C(F)(F)F)nc2[nH]cc(-c3ccc4nccn4c3)c12` [Compound 2177, (R)-4-Ethoxy-5-(imidazo[1,2-a]pyridin-6-yl)-N-(1,1,1-trifluoropropan-2-yl)-7H-pyrrolo[2,3-d]pyrimidin-2-amine]: 10.3 nM; for `C[C@@H](Nc1nc(OCCO)c2c(-c3ccc4nccn4c3)c[nH]c2n1)C(F)(F)F` [Compound 2178, (R)-2-((5-(imidazo[1,2-a]pyridin-6-yl)-2-((1,1,1-trifluoropropan-2-yl)amino)-7H-pyrrolo[2,3-d]pyrimidin-4-yl)oxy)ethan-1-ol]: 6.8 nM.
With `C[C@]1(O)CC[C@@H](Nc2ncc3c(-c4cc(F)c5nccn5c4)c[nH]c3n2)CC1` [Compound 2179, cis-4-((5-(8-Fluoroimidazo[1,2-a]pyridin-6-yl)-7H-pyrrolo[2,3-d]pyrimidin-2-yl)amino)-1-methylcyclohexan-1-ol] the figure was 2.2 nM.
The same measure for `[2H]C([2H])([2H])O[C@H]1CC[C@@H](Nc2ncc3c(-c4cc(F)c5nccn5c4)c[nH]c3n2)CC1` [Compound 2180, 5-(8-Fluoroimidazo[1,2-a]pyridin-6-yl)-N-(cis-4-(methoxy-d3)cyclohexyl)-7H-pyrrolo[2,3-d]pyrimidin-2-amine]: 3.9 nM.
`Fc1cc(-c2c[nH]c3nc(N[C@H]4CC[C@@H](OCC(F)F)CC4)ncc23)cn2ccnc12` [Compound 2181, N-(cis-4-(2,2-Difluoroethoxy)cyclohexyl)-5-(8-fluoroimidazo[1,2-a]pyridin-6-yl)-7H-pyrrolo[2,3-d]pyrimidin-2-amine]: the EC50 worked out at 5.1 nM.
With `OCCO[C@H]1CC[C@@H](Nc2ncc3c(-c4cc(F)c5nccn5c4)c[nH]c3n2)CC1` [Compound 2182, 2-((cis-4-((5-(8-Fluoroimidazo[1,2-a]pyridin-6-yl)-7H-pyrrolo[2,3-d]pyrimidin-2-yl)amino)cyclohexyl)oxy)ethan-1-ol] the figure was 3.1 nM.
Take `COc1nc(N[C@H](C)C(F)(F)F)nc2[nH]cc(-c3cc(F)c4nccn4c3)c12` [Compound 2183, (R)-5-(8-Fluoroimidazo[1,2-a]pyridin-6-yl)-4-methoxy-N-(1,1,1-trifluoropropan-2-yl)-7H-pyrrolo[2,3-d]pyrimidin-2-amine]: the EC50 worked out at 10.4 nM.
With `COC[C@@H](C)Nc1nc(OC)c2c(-c3cc(F)c4nccn4c3)c[nH]c2n1` [Compound 2184] the figure was 69.9 nM.
In the case of `COc1nc(NC2CCC(F)(F)CC2)nc2[nH]cc(-c3cc(F)c4nccn4c3)c12` [Compound 2185, N-(4,4-Difluorocyclohexyl)-5-(8-fluoroimidazo[1,2-a]pyridin-6-yl)-4-methoxy-7H-pyrrolo[2,3-d]pyrimidin-2-amine], the EC50 was 82 nM.
Consider `COc1nc(N[C@H]2CC[C@@](C)(O)CC2)nc2[nH]cc(-c3cc(F)c4nccn4c3)c12` [Compound 2186, cis-4-((5-(8-Fluoroimidazo[1,2-a]pyridin-6-yl)-4-methoxy-7H-pyrrolo[2,3-d]pyrimidin-2-yl)amino)-1-methylcyclohexan-1-ol], for which the EC50 was found to be 2.3 nM.
Consider `COc1nc(N[C@H]2CC[C@@H](OCC(F)F)CC2)nc2[nH]cc(-c3cc(F)c4nccn4c3)c12` [Compound 2187, N-(cis-4-(2,2-Difluoroethoxy)cyclohexyl)-5-(8-fluoroimidazo[1,2-a]pyridin-6-yl)-4-methoxy-7H-pyrrolo[2,3-d]pyrimidin-2-amine], for which the EC50 worked out at 3.6 nM.
The same measure for `COc1nc(NC2CCC3(CC2)OCCO3)nc2[nH]cc(-c3cc(F)c4nccn4c3)c12` [Compound 2188, 5-(8-Fluoroimidazo[1,2-a]pyridin-6-yl)-4-methoxy-N-(1,4-dioxaspiro[4.5]decan-8-yl)-7H-pyrrolo[2,3-d]pyrimidin-2-amine]: 1.9 nM; for `CCOc1nc(N[C@H](C)C(F)(F)F)nc2[nH]cc(-c3cc(F)c4nccn4c3)c12` [Compound 2189, (R)-4-Ethoxy-5-(8-fluoroimidazo[1,2-a]pyridin-6-yl)-N-(1,1,1-trifluoropropan-2-yl)-7H-pyrrolo[2,3-d]pyrimidin-2-amine]: 8.1 nM; for `CCOc1nc(N[C@H]2CC[C@@H](O)CC2)nc2[nH]cc(-c3cc(F)c4nccn4c3)c12` [Compound 2190, cis-4-((4-Ethoxy-5-(8-fluoroimidazo[1,2-a]pyridin-6-yl)-7H-pyrrolo[2,3-d]pyrimidin-2-yl)amino)cyclohexan-1-ol]: 3 nM.
With `Cn1nnc2ccc(-c3c[nH]c4nc(N[C@H]5CC[C@@](C)(O)CC5)ncc34)cc21` [Compound 2191, cis-1-Methyl-4-((5-(1-methyl-1H-benzo[d][1,2,3]triazol-6-yl)-7H-pyrrolo[2,3-d]pyrimidin-2-yl)amino)cyclohexan-1-ol] the figure was 4.7 nM; with `Cn1nnc2ccc(-c3c[nH]c4nc(N[C@H]5CC[C@@H](OCC(F)F)CC5)ncc34)cc21` [Compound 2192, N-(cis-4-(2,2-Difluoroethoxy)cyclohexyl)-5-(1-methyl-1H-benzo[d][1,2,3]triazol-6-yl)-7H-pyrrolo[2,3-d]pyrimidin-2-amine], 6.9 nM; with `COc1nc(N[C@H](C)C(F)(F)F)nc2[nH]cc(-c3ccc4nnn(C)c4c3)c12` [Compound 2193, (R)-4-Methoxy-5-(1-methyl-1H-benzo[d][1,2,3]triazol-6-yl)-N-(1,1,1-trifluoropropan-2-yl)-7H-pyrrolo[2,3-d]pyrimidin-2-amine], 2.1 nM.
The same measure for `COC[C@@H](C)Nc1nc(OC)c2c(-c3ccc4nnn(C)c4c3)c[nH]c2n1` [Compound 2194, (R)-4-Methoxy-N-(1-methoxypropan-2-yl)-5-(1-methyl-1H-benzo[d][1,2,3]triazol-6-yl)-7H-pyrrolo[2,3-d]pyrimidin-2-amine]: 5.5 nM; for `COc1nc(NC2CCN(C)CC2)nc2[nH]cc(-c3ccc4nnn(C)c4c3)c12` [Compound 2195, 4-Methoxy-5-(1-methyl-1H-benzo[d][1,2,3]triazol-6-yl)-N-(1-methylpiperidin-4-yl)-7H-pyrrolo[2,3-d]pyrimidin-2-amine]: 9.4 nM.
Consider `CCOc1nc(N[C@H](C)C(F)(F)F)nc2[nH]cc(-c3ccc4nnn(C)c4c3)c12` [Compound 2196, (R)-4-Ethoxy-5-(1-methyl-1H-benzo[d][1,2,3]triazol-6-yl)-N-(1,1,1-trifluoropropan-2-yl)-7H-pyrrolo[2,3-d]pyrimidin-2-amine], for which the EC50 was found to be 11.6 nM.
Turning to `CCOc1nc(N[C@H]2CC[C@@H](O)CC2)nc2[nH]cc(-c3ccc4nnn(C)c4c3)c12` [Compound 2197, cis-4-((4-Ethoxy-5-(1-methyl-1H-benzo[d][1,2,3]triazol-6-yl)-7H-pyrrolo[2,3-d]pyrimidin-2-yl)amino)cyclohexan-1-ol], the EC50 stood at 1.5 nM.
